How the values were obtained:
NCI-H1975 cells [1] = experiment: NCI-H1975 xenograft model in nude mice; type: in vivo; conditions: 30 mg/kg/day oral, 3 weeks; for tumor growth: nude mice with subcutaneous NCI-H1975 tumors
Method: All animal studies were conducted according to protocols approved by the Animal Ethics Committee of the Institute of Zoology, Chinese Academy of Sciences, with the approval ID of AEC2011030205. All mice used in this study were bred and maintained in a specific pathogen-free environment. NCI-H1975 cells (2.5×10^6) were injected subcutaneously into the right flank of nude mice. […]. Animals were sacrificed when tumors reached 2 cm or if the mice appeared moribund to prevent unnecessary morbidity to the mice. At the time of the animals' death, tumors were excised; cells were separated and lyzed for Western blotting using anti-Noxa antibody and anti-Actin antibodies. Noxa expression was then quantified by densitometry analysis and normalized against Actin expression.
We tested the in vivo anti-tumor efficacy of V1801. […]. Animals were euthanized when they were treated for 3 weeks and the tumor samples were isolated and imaged (Fig. 6c). Proteins were extracted from tumor samples and Western blot assay was conducted. […]

Noxa = Noxa protein expression by Western blot in NCI-H1975 cells; type: cell-based; conditions: 3 to 4 µM for 24 h
Method: (§1) Cells were suspended in lysis buffer (50 mM Tris-HCl (pH 7.4), 150 mM NaCl, 1% triton X-100, 1% sodium deoxycholate, 0.1% SDS, 1 mM Na3VO4, 1 mM NaF, 1 mM EDTA, 1 mM PMSF, complete protease inhibitor cocktail) and cleared by centrifugation to obtain whole-cell lysates. Equal amounts of samples were separated by SDS-PAGE, transferred to nitrocellulose and immunoblotted with antibody indicated.

NCI-H1975 cells [2] = experiment: Cytotoxicity / cell proliferation (MTT assay) in NCI-H1975 cells; type: cell-based; conditions: for IC50: Homo sapiens, NCI-H1975
Method: (§2) Cell proliferation was determined using MTT assay. Cell viability was estimated by trypan blue dye exclusion. Externalization of phosphatidylserine was tested using an Annexin V/PI Apoptosis Detection kit (BD Biosciences, San Jose, CA) according to manufacturer's instruction.

EGFR kinase = biological target: T1, EGFR kinase (Homo sapiens, UniProt P00533); experiment: In vitro EGFR kinase assay (ADP-Glo Kinase Assay Kit, EGFR Kinase Enzyme System); type: biochemical
T1 construct: purchased Promega
Method: In vitro kinase inhibitory ability was determined using the ADP-Glo™ Kinase Assay Kit and EGFR Kinase Enzyme System (Promega), following the manufacturer's instructions.

[3] = system: phosphorylated EGFR (p-EGFR); experiment: Western blot of phosphorylated EGFR in NCI-H1975 cells; type: cell-based; conditions: 12 h
Method: as §1

NCI-H1975 cells [4] = experiment: Combination of V1801 and bortezomib in NCI-H1975 cells (MTT, combination index); type: cell-based; conditions: 24 h
Method: as §2, with “instruction. After staining with Hoechst 33258 at 10 µg/ml for 10 min, cell death was assessed by a fluorescence microscope (Leica).” for “instruction.”
The interaction between compounds was quantified by determining the combination index (CI) calculated by the Chou–Talalay equation [29], [30]. The general equation for the classic isobologram is given by: CI = (D)1/(Dx)1+(D)2/(Dx)2. Where Dx indicates the dose of one compound alone required to produce an effect, (D)1 and (D)2 are the doses of compounds 1 and 2, respectively, necessary to produce the same effect in combination. From this analysis, the combined effects of the two compounds can be summarized as follows: CI<1 indicates synergism; CI = 1 indicates additive effect; and CI>1 indicates antagonism.

[5] = system: phosphorylated EGFR (p-EGFR); experiment: Western blot of phosphorylated EGFR in HCC827 cells; type: cell-based; conditions: gefitinib-sensitive HCC827 cells, 12 h
Method: as §1

A549 cells [6] = experiment: Cell proliferation (MTT assay) in A549 cells; type: cell-based; conditions: wild type EGFR-expressing A549, MTT assay, 48 h, dose-dependent
Method: as §2, with “instruction. After staining with Hoechst 33258 at 10 µg/ml for 10 min, cell death was assessed by a fluorescence microscope (Leica).” for “instruction.”

NCI-H1975 cells [7] = experiment: Soft-agar colony formation (clonogenic) assay; type: cell-based; conditions: 3 µM for 12 h, colonies after 2 weeks; compared to gefitinib or vehicle control
Text: To this end, trypsinized cells were suspended in RPMI 1640 medium containing 10% FBS and low-melting-point 0.3% agarose (Amresco, Solon, OH) and subsequently overlaid onto a solidified layer of RPMI 1640 medium containing 10% FBS and 0.6% agarose in 35 mm plate (5,000 cells/plate) in triplicate. After 2 weeks, the colonies were fixed in 90% ethanol and stained with 0.005% crystal violet (Sigma). The colony forming units with more than 100 cells were counted using a light microscope.

NCI-H1975 cells [8] = experiment: Apoptosis by Annexin V/PI staining and flow cytometry in NCI-H1975 cells; type: cell-based; conditions: 24 h
Method: as §2, with “instruction. After staining with Hoechst 33258 at 10 µg/ml for 10 min, cell death was assessed by a fluorescence microscope (Leica).” for “instruction.”

A549 cells [9] = experiment: Apoptosis by Annexin V/PI staining and flow cytometry in A549 cells; type: cell-based; conditions: 24 h
Method: as §2, with “instruction. After staining with Hoechst 33258 at 10 µg/ml for 10 min, cell death was assessed by a fluorescence microscope (Leica).” for “instruction.”

[10] = L858R/T790M-EGFR harboring NSCLC cells

T1 sequence (P00533 25-1210): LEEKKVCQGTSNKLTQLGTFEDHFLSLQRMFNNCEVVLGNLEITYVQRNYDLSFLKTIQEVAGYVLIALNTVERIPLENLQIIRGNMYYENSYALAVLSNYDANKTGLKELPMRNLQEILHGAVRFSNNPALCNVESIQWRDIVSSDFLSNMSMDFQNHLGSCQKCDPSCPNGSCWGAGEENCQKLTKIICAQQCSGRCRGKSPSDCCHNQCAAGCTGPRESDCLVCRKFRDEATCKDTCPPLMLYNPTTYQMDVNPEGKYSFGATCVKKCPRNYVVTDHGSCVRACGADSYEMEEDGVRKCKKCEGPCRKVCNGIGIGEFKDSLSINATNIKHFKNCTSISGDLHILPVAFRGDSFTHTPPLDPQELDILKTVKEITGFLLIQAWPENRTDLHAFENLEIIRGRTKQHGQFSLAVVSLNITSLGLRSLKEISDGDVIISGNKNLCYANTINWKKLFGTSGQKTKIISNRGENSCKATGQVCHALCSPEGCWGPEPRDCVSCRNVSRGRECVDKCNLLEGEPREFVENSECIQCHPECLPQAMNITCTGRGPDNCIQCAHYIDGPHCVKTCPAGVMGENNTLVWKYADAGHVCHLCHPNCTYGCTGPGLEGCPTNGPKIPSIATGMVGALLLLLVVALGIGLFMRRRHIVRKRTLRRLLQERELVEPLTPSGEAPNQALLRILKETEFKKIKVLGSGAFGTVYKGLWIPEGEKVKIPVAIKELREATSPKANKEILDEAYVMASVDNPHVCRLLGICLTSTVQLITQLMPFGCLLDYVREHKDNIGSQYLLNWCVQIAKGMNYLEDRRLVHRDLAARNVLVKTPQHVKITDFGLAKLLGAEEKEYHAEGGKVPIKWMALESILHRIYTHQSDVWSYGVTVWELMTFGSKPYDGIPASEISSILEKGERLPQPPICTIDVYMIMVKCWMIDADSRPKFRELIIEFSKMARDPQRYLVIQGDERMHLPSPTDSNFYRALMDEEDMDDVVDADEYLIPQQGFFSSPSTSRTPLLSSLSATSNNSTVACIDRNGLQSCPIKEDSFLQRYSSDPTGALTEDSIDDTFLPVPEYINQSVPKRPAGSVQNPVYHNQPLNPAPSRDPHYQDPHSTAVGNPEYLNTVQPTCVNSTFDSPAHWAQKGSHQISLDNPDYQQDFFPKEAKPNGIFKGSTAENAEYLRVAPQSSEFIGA

## COc1cc2ncnc(Nc3ccc(F)c(Cl)c3)c2cc1OCCCN1CCOCC1 [Gefitinib, N-(3-chloro-4-fluoro-phenyl)-7-methoxy-6-(3-morpholin-4-ylpropoxy) quinazolin-4-amine, reference compound]
NCI-H1975 cells [1]
  tumor growth: does not show therapeutic benefit
Noxa
  Noxa protein level: failed to up-regulate

## COc1cc2c(Nc3cc(C(F)(F)F)ccc3Cl)ncnc2cc1OCCCN=[N+]=[N-] [V1301]
NCI-H1975 cells [2]; [10]
  IC50: > 10 µM
EGFR kinase
  IC50: > 10000 nM

## CCCCCCc1cn(CCCOc2cc3ncnc(Nc4cc(C(F)(F)F)ccc4Cl)c3cc2OC)nn1 [V1302]
NCI-H1975 cells [2]; [10]
  IC50: > 10 µM
EGFR kinase
  IC50: > 10000 nM

## COc1cc2c(Nc3cc(C(F)(F)F)ccc3Cl)ncnc2cc1OCCCn1cnnn1 [V1303]
NCI-H1975 cells [2]; [10]
  IC50: > 10 µM
EGFR kinase
  IC50: > 10000 nM

## C=CCOc1cc2ncnc(Nc3cc(C(F)(F)F)ccc3Cl)c2cc1OC [V1304]
EGFR kinase
  IC50: > 10000 nM

## COc1cc2c(Nc3cc(C(F)(F)F)ccc3Cl)ncnc2cc1OCCCN1CCOCC1 [V1305]
EGFR kinase
  IC50: > 10000 nM

## COc1cc2c(Nc3cc(C(F)(F)F)ccc3Cl)ncnc2cc1OCCN1CCCCC1 [V1306]
EGFR kinase
  IC50: > 10000 nM

## COc1cc2c(Nc3cc(C(F)(F)F)ccc3Br)ncnc2cc1OCCCN1CCCCC1 [V1801, N-(2-bromo-5-(trifluoromethyl)phenyl)-6-methoxy-7-(3-(piperidin-1-yl)propoxy)quinazolin-4-amine]
NCI-H1975 cells [2]; [10]
  IC50: 3 µM
NCI-H1975 cells [2]; MTT assay, 48 h, dose-dependent
  inhibition of proliferation of NCI-H1975 cells: significant inhibitory effects
[3]
  down-regulation of phosphorylated EGFR (p-EGFR): failed to down-regulate
NCI-H1975 cells [4]; V1801 (2 µM) combined with bortezomib 10 to 15 nM, CI<1 indicates synergism
  combination index (CI): less than 1
[5]
  de-phosphorylation of p-EGFR: not
A549 cells [6]
  inhibition of proliferation of A549 cells: significant inhibitory effects
NCI-H1975 cells [7]
  clonogenic activity of NCI-H1975 cells: drastically inhibited
NCI-H1975 cells [8]
  induction of apoptosis: induced apoptosis
A549 cells [9]
  induction of apoptosis: induced apoptosis
EGFR kinase
  IC50: 702 nM
NCI-H1975 cells [1]
  tumor growth: significantly inhibited tumor growth
NCI-H1975 cells [1]; Western blot, compared with vehicle or gefitinib control mice
  Noxa expression in tumor samples: up-regulated
Noxa
  Noxa protein level: markedly up-regulated

## COc1cc2c(Nc3ccc(Br)c(C(F)(F)F)c3)ncnc2cc1OCCCN1CCCCC1 [V1802]
NCI-H1975 cells [2]; [10]
  IC50: 7.8 µM
EGFR kinase
  IC50: 623 nM

## COc1cc2c(Nc3ccc4c(C(F)(F)F)cc(=O)oc4c3)ncnc2cc1OCCCN1CCCCC1 [V1803]
NCI-H1975 cells [2]; [10]
  IC50 NCI-H1975 cells: Insoluble

## COc1cc2c(Nc3ccc4nc(C(F)(F)F)[nH]c4c3)ncnc2cc1OCCCN1CCCCC1 [V1804]
NCI-H1975 cells [2]; [10]
  IC50: > 10 µM
EGFR kinase
  IC50: 2000 nM

## COc1cc2c(Nc3cc(C(F)(F)F)ccc3F)ncnc2cc1OCCCN1CCCCC1 [V1805]
NCI-H1975 cells [2]; [10]
  IC50: > 10 µM
EGFR kinase
  IC50: 120 nM

## COc1cc2c(Nc3cc(C(F)(F)F)ccc3Cl)ncnc2cc1OCCCC1CCCCC1 [V1806]
NCI-H1975 cells [2]; [10]
  IC50: > 10 µM
EGFR kinase
  IC50: > 10000 nM

## COc1cc2c(Nc3cc(C(F)(F)F)cc(C(F)(F)F)c3)ncnc2cc1OCCCN1CCCCC1 [V1807]
NCI-H1975 cells [2]; [10]
  IC50: 7.5 µM
EGFR kinase
  IC50: > 10000 nM

## COc1cc2c(Nc3cc(C(F)(F)F)ccc3Cl)ncnc2cc1OCCCN1CCCCC1 [V1808]
NCI-H1975 cells [2]; [10]
  IC50: 18.2 µM
EGFR kinase
  IC50: 2670 nM

## CC(C)C[C@H](NC(=O)[C@H](Cc1ccccc1)NC(=O)c1cnccn1)B(O)O [bortezomib, reference compound]
NCI-H1975 cells [4]; bortezomib 10 to 15 nM with V1801 2 µM, MTT
  enhancement of V1801-caused inhibition of cell proliferation: significantly enhanced

From paper PMC3504066 (PLoS ONE, 2012)
